Assay type in all cases: biochemical
Conditions in all cases: 10 nM JAK enzyme, 800 nM Abl peptide, room temperature 75 min

Experiment [1] concerns the target T1, JAK3 (Homo sapiens, UniProt P52333).
T1 sequence (P52333 1-1124): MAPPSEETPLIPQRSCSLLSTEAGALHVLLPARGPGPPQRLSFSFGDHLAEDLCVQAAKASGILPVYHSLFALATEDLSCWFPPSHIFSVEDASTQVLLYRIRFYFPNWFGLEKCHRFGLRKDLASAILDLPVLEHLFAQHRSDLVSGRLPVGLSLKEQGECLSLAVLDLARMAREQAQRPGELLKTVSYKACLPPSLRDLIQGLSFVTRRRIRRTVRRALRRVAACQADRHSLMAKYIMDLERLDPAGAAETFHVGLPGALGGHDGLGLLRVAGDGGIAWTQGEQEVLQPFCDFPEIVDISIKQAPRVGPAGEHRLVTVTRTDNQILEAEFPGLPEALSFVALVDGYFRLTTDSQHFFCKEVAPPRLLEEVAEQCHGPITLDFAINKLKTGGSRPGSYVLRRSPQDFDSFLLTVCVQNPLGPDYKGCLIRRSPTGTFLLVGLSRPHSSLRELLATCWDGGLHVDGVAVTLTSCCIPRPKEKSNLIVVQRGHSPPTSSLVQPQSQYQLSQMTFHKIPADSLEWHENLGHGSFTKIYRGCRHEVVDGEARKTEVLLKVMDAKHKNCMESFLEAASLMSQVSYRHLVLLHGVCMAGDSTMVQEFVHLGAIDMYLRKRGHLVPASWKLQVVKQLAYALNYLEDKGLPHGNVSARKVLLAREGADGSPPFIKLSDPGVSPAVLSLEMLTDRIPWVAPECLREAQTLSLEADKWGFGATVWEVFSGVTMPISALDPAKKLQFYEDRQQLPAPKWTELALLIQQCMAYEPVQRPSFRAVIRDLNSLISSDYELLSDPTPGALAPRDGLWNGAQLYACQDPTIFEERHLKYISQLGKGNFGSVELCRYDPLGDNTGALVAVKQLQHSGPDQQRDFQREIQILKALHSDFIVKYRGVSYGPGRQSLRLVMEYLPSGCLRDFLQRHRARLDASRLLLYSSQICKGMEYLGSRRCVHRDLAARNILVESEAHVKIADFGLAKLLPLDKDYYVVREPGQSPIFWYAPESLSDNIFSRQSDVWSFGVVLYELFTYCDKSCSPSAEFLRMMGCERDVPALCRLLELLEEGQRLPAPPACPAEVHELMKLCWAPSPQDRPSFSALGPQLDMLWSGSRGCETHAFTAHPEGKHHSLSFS
The experiment in a line: JAK assay (KINASE-GLO luminescent kinase assay), JAK3. As for the experimental part:
(§1) All compounds were initially prepared as 10 mM stocks in anhydrous dimethylsulfoxide (DMSO). A 20 μL aliquot of the 10 mM solutions was transferred to individual wells in column 1 of a 96-well polypropylene microtiter plate (Corning #3363) and diluted with DMSO to give a final compound concentration of 4 mM. Test compounds were then serially diluted 1:5 in DMSO for an 11-point concentration response and further diluted in the assay buffer bringing all compound concentrations to a final range of 100 μM to 10 pM in 2.5% DMSO. The assay was performed in white 96-well, flat-bottom, half-area, non-binding assay plate (Corning #3642) in assay buffer consisting of 20 mM HEPES (pH 7.5), 10 mM MgCl2*6H2O, 100 μM sodium orthovanadate, 0.05% CHAPS and 0.1% bovine serum albumin. A 10 μL aliquot of compound from each well of the intermediate dilution plate and 20 μL of a 2×JAK substrate/enzyme solution containing acceptor substrate (800 nM Abl peptide), JAK enzyme (10 nM JAK1, JAK2, JAK3, or TYK2), and 1,4-Dithiothreitol (DTT, 2 μM) were added to all wells. The reaction was initiated by the addition of 10 μL of 4× stock solution ATP (2 μM). Reactions were thoroughly mixed manually, covered and allowed to incubate at room temperature for 75 min. Protein kinase activity was quantitated using Promega's KINASE-GLO™ luminescent Kinase Assay Kit according to the manufacturer's directions. ATP concentrations remaining in Test wells following the termination of the enzymatic reaction were compared against control wells containing equivalent amounts of DMSO containing no inhibitor (CTRL). […] Percent of Control (POC) values were determined for each concentration of compound tested according to the equation:
(§2) [formula] • IC50 values were calculated using the following 4-parameter logistic curve-fitting algorithm:
(§3) [formula] • IC50 values were converted to Ki values using the Cheng-Prusoff Equation: […]

In experiment [2] the target is TYK2 (Homo sapiens, UniProt P29597). The experiment is described as follows: JAK assay (KINASE-GLO luminescent kinase assay), TYK2. Here is the method: as §1, with “A 20 μL aliquot of the 10 mM solutions was transferred to individual wells in column 1 of a 96-well polypropylene microtiter plate (Corning #3363) and diluted with DMSO to give a final compound concentration of 4 mM.” left out
Chain of TYK2 (P29597 whole entry): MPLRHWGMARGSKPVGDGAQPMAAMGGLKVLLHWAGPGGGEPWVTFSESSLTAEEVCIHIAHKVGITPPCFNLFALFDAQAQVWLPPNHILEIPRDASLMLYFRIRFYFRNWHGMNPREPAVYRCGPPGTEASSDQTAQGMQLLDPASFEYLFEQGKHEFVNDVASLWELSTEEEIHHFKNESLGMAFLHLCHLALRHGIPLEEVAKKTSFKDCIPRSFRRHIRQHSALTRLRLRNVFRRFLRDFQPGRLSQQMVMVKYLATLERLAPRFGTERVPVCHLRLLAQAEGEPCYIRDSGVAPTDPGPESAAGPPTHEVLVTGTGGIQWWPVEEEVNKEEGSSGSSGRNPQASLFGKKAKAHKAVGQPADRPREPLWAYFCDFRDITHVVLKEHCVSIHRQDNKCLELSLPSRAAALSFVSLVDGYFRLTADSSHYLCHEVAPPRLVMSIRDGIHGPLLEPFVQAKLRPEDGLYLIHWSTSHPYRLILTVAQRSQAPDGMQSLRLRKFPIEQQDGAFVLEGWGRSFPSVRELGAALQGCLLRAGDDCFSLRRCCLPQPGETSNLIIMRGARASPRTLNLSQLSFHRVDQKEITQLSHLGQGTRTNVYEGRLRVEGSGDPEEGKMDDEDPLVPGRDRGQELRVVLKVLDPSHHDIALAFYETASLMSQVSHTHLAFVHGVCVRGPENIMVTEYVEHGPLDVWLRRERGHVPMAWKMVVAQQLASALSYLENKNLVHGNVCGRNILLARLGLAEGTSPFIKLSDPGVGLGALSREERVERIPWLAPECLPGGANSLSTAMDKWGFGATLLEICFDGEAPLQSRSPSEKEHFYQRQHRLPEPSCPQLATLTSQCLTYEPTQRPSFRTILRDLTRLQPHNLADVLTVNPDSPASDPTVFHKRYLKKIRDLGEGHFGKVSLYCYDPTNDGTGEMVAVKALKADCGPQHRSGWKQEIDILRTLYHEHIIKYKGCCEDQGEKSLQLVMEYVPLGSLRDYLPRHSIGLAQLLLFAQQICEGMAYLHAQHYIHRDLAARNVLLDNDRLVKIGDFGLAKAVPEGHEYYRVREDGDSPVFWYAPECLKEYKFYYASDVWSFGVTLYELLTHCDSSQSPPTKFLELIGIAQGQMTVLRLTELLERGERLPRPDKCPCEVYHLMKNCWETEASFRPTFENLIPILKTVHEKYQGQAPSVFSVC
as §2, §3

Experiment [3] addresses JAK2 (Homo sapiens, UniProt O60674). The experiment in a line: JAK assay (KINASE-GLO luminescent kinase assay), JAK2. As for the experimental part:
as §1, §2, §3
For orientation: Kinase-Glo measures the ATP left after a reaction by luminescence.

In experiment [4] the target is JAK1 (Homo sapiens, UniProt P23458). The experiment is described as follows: JAK assay (KINASE-GLO luminescent kinase assay), JAK1. Here is the method:
as §1, §2, §3

Bounds are passed on as bounds.

Chain of JAK1 (P23458 whole entry): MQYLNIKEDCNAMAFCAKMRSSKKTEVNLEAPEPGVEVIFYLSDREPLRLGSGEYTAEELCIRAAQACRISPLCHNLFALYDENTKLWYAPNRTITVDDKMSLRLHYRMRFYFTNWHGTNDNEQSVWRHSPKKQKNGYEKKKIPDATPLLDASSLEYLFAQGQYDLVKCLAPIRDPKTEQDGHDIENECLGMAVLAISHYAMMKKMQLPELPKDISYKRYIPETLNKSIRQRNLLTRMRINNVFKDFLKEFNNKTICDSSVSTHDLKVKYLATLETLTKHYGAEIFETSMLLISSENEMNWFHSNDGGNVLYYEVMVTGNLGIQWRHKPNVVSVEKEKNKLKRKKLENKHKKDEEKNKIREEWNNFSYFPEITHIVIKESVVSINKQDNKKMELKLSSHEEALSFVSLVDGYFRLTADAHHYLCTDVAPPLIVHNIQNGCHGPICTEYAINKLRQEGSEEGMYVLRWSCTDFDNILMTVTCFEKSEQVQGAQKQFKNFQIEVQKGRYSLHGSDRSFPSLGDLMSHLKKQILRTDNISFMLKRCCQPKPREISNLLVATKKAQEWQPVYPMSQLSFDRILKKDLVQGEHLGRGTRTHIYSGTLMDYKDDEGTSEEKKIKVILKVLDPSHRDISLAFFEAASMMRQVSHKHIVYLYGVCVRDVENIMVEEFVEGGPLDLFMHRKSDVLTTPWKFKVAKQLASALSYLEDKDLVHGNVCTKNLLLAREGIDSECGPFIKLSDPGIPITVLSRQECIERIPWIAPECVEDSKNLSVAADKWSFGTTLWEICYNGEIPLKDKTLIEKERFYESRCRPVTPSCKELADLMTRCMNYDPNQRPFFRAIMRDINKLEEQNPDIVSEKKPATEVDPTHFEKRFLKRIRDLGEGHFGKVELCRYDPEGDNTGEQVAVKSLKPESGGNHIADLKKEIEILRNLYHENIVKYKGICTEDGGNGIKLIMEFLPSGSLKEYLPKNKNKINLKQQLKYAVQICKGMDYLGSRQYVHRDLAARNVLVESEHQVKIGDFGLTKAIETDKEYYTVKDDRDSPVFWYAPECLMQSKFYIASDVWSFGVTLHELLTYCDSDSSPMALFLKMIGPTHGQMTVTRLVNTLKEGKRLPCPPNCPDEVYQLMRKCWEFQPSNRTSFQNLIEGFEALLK
Chain of JAK2 (O60674 whole entry): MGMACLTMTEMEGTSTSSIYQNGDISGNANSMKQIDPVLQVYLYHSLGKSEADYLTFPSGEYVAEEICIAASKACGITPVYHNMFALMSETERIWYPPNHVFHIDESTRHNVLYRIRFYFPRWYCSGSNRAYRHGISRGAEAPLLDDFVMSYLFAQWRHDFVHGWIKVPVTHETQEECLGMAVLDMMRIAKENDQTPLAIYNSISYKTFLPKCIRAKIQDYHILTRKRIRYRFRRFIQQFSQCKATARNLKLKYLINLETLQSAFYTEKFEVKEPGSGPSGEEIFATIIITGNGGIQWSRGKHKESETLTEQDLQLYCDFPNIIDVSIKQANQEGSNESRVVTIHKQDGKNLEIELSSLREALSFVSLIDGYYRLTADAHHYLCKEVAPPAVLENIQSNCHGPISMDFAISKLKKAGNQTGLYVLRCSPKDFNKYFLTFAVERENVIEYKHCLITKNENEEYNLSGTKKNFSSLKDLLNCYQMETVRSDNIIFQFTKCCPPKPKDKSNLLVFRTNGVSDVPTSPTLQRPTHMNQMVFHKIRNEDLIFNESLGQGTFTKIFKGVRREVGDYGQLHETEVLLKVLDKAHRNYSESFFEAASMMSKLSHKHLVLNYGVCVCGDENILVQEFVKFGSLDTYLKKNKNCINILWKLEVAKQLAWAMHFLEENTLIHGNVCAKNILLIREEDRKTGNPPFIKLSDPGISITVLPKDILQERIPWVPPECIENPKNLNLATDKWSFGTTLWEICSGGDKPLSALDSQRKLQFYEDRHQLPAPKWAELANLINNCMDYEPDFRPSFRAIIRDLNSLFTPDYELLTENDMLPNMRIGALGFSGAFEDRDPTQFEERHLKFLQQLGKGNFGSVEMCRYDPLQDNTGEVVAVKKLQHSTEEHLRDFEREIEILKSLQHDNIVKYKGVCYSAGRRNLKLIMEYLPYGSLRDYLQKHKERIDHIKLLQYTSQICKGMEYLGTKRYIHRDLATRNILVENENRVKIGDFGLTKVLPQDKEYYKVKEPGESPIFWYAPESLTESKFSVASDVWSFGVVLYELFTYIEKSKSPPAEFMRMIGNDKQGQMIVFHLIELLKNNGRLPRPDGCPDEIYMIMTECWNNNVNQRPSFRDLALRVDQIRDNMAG

Take `CC(C)(C)OC(=O)NCc1cccc(Nc2ncc(Cl)c(-c3cnn(CC4(CF)CC4)c3)n2)c1` [CC(C)(C)OC(═O)NCC1═CC═CC]: the IC50 in experiment [1] was less than 10 nM; in experiment [2] it was less than 100 nM; in experiment [3], less than 100 nM; in experiment [4] it was 157 nM.

Consider `CC(=O)OCCc1ccc(Nc2ncc(Cl)c(-c3cnn(CCC#N)c3)n2)cc1` [CC(═O)OCCC1═CC═C(NC2═NC(═C], for which the IC50 in experiment [1] is less than 100 nM; in experiment [2], less than 10 nM; in experiment [3] it was less than 10 nM; in experiment [4], less than 100 nM.

For the compound `CCc1cnc(Nc2cc(C)ns2)nc1-c1cnn(CC2(Cl)CC2)c1` [CCC1═C(N═C(NC2═CC], the IC50 in experiment [1] was less than 10 nM; in experiment [2], less than 100 nM; in experiment [3], less than 10 nM; in experiment [4], less than 100 nM.

Turning to `CCS(=O)(=O)N1CC(CF)(Cn2cc(-c3nc(Nc4cc(C)ns4)ncc3Cl)cn2)C1` [CC[S](═O)(═O)N1CC(CF)(C[N]2C═C], the IC50 in experiment [1] is less than 100 nM; in experiment [2] it was less than 100 nM; in experiment [3], less than 10 nM; in experiment [4] it was less than 100 nM.

Take `CCS(=O)(=O)N1CC(CO)(Cn2cc(-c3nc(Nc4cc(C)ns4)ncc3Cl)cn2)C1` [CC[S](═O)(═O)N1CC(CO)]: the IC50 is less than 100000 nM in experiment [1], less than 100000 nM in experiment [2], less than 1000 nM in experiment [3] and less than 1000 nM in experiment [4].

On to `Cn1ccc(Nc2ncc(Cl)c(-c3cnn(CC4(C#N)COC4)c3)n2)cc1=O` [CN1/C═C\C(═C/C1═O)NC2═NC(═C], for which the IC50 was less than 1000 nM in experiment [1], less than 1000 nM in experiment [2], less than 10 nM in experiment [3] and less than 1000 nM in experiment [4].

As to `Cc1cnc(Nc2ccc3c(c2)C(=O)N(C)C3=O)nc1-c1cnn(CC2(Cl)CC2)c1` [CN1C(═O)C2═C(C═C(NC3═NC(═C], the concentration for half-maximal inhibition (IC50) is less than 100 nM in experiment [1], less than 100 nM in experiment [2], less than 10 nM in experiment [3] and less than 1000 nM in experiment [4].

Turning to `Cc1cnc(Nc2ccc3c(c2)CN(C)C3)nc1-c1cnn(CC2(CF)CC2)c1` [CN1CC2═CC═C(NC3═NC(═C], the IC50 in experiment [1], in experiment [2], in experiment [3] and in experiment [4] was less than 10 nM in each case.

On to `Cc1cc(Nc2ncc(C)c(-c3cnn(CC4(CF)CC4)c3)n2)ccc1N1CCN(C)CC1` [CN1CCN(CC1)C2═C(C)C═C(NC3═NC], for which the IC50 in experiment [1] is less than 10 nM; in experiment [2] it was less than 10 nM; in experiment [3] it was less than 10 nM; in experiment [4], less than 100 nM.

With `Cc1cnc(Nc2ccc(N3CCN(C)CC3)cc2)nc1-c1cnn(CC2(C#N)CC2)c1` [CN1CCN(CC1)C2═CC═C(NC3═NC(═C(C([2H])], the IC50 is less than 10 nM in experiment [1], less than 10 nM in experiment [2], less than 10 nM in experiment [3] and less than 100 nM in experiment [4].

Consider `Cc1cnc(Nc2ccc(N3CCN(C)CC3)cc2)nc1-c1cnn(CC2(F)CC2)c1` [CN1CCN(CC1)C2═CC═C(NC3═NC(═C(C], for which the IC50 in experiment [1] was less than 10 nM; in experiment [2], less than 10 nM; in experiment [3], less than 10 nM; in experiment [4], less than 100 nM.

For the compound `CN1CCN(c2ccc(Nc3ncc(Cl)c(-c4cnn(CC5(C#N)CC5)c4)n3)cn2)CC1` [CN1CCN(CC1)C2═NC═C(NC3═NC(═C], the IC50 is less than 100000 nM in experiment [1], less than 100000 nM in experiment [2], less than 1000 nM in experiment [3] and less than 100000 nM in experiment [4].

`Cc1cnc(Nc2ccc(CN3CCN(C)CC3)cc2)nc1-c1cnn(CC2(CF)CC2)c1` [CN1CCN(CC1)CC2═CC═C(NC3═NC]: the IC50 was less than 100 nM in experiment [1], less than 100 nM in experiment [2], less than 10 nM in experiment [3] and less than 1000 nM in experiment [4].

In the case of `Cc1cnc(Nc2cccc(CN3CCN(C)CC3)c2)nc1-c1cnn(CC2(CF)CC2)c1` [CN1CCN(CC1)CC2═CC═CC(═C2)NC3═NC(═C], the 50% inhibitory concentration (IC50) in experiment [1] was less than 100 nM; in experiment [2], less than 1000 nM; in experiment [3], less than 10 nM; in experiment [4] it was less than 1000 nM.

`Cc1cnc(Nc2cc(CN3CCN(C)CC3)ns2)nc1-c1cnn(CC2(CF)CC2)c1` [CN1CCN(CC1)CC2═NSC(═C2)NC3═NC]: the IC50 is less than 100 nM in experiment [1], less than 100 nM in experiment [2], less than 10 nM in experiment [3] and less than 1000 nM in experiment [4].

In the case of `Cc1cnc(Nc2cc(COC(=O)CCN3CCN(C)CC3)ns2)nc1-c1cnn(CC2(CF)CC2)c1` [CN1CCN(CC1)CCC(═O)OCC2═NSC], the IC50 in experiment [1] was less than 10 nM; in experiment [2], less than 10 nM; in experiment [3] it was less than 10 nM; in experiment [4], less than 100 nM.

As to `Cc1cnc(Nc2ccc3c(c2)OCCN3C)nc1-c1cnn(CC2(CF)CC2)c1` [CN1CCOC2═CC(═CC═C12)NC3═NC(═C], the IC50 is less than 100 nM in experiment [1], less than 100 nM in experiment [2], less than 10 nM in experiment [3] and less than 100 nM in experiment [4].

In the case of `Cc1cc(Nc2ncc(Cl)c(-c3cnn(CC4(N(C)C(=O)OC(C)(C)C)CC4)c3)n2)sn1` [CN(C(═O)OC(C)(C)C)C1(CC1)C[N]2C═C], the IC50 was less than 100 nM in experiment [1], less than 1000 nM in experiment [2], less than 100 nM in experiment [3] and less than 1000 nM in experiment [4].

For `Cc1cnc(Nc2ccc(N3CC(N(C)C)C3)cc2)nc1-c1cnn(CC2(CF)CC2)c1` [CN(C)C1CN(C1)C2═CC═C(NC3═NC], the IC50 in experiment [1] is less than 10 nM; in experiment [2], less than 100 nM; in experiment [3] it was less than 10 nM; in experiment [4], less than 100 nM.

Regarding `Cc1cnc(Nc2cccc(C(=O)N(C)C)c2)nc1-c1cnn(CC2(CF)CC2)c1` [CN(C)C(═O)C1═CC(═CC═C1)NC2═NC], the IC50 in experiment [1] was less than 100 nM; in experiment [2] it was less than 100 nM; in experiment [3] it was less than 10 nM; in experiment [4] it was less than 100 nM.

As to `Cc1cnc(Nc2ccc(C(=O)N(C)C)cc2)nc1-c1cnn(CC2(CF)CC2)c1` [CN(C)C(═O)C1═CC═C(NC2═NC(═C], the IC50 in experiment [1] was less than 100 nM; in experiment [2], less than 100 nM; in experiment [3], less than 10 nM; in experiment [4], less than 100 nM.

The term IC50 denotes the midpoint of a concentration-inhibition curve. A lower IC50 goes with greater potency in that assay.
